# Legend:
# SKVO3 cells = assay: cells; type: cell-based; details: Homo sapiens; SKVO3, drug-sensitive; read-out: IC50
# Excerpt: (§1) The antineoplastic agent vinblastine is incorporated into the block copolymer mixture described in Example 3.
# (§2) The antineoplastic agent mitomycin C is incorporated into the block copolymer mixture described in Example 3.
# (§3) The antineoplastic agent methotrexate is incorporated into the block copolymer mixture described in Example 3.
# (§4) The antineoplastic agent daunorubicin is incorporated into the block copolymer mixture described in Example 3.
# SKVLB cells = assay: cells; type: cell-based; details: Homo sapiens
# Excerpt: as §1, §2, §3, §4
# [1] = tested on: normal human mononuclear cells; assay: Cytotoxicity in normal human mononuclear cells, Example 4; type: cell-based
# Experimental: (§5) B. Human ovarian carcinoma cells (CRL157) are precultured in 1% solution of the same block copolymer but without daunorubicin in RPMI 1640 medium supplemented with 10% calf fetal serum. The preparation of part A is added and the mixture is incubated for 60 minutes at 37° C. and the cells then washed three times with RPMI 1640 and cultured in RPMI 1640 supplemented with 10% calf fetal serum for 3 days {Prep. A}. Cytotoxicity is measured, both for this preparation and a parallel preparation of free daunorubicin {Prep. B}, using the method of Alley et al., Cancer Res., 48, 589-601 (1988). The results are as follows:
# (§6) A. A 1:1.5 mixture of block copolymers of poly(oxyethylene)-poly(oxypropylene) (pluronics P-85 and L-64) having individual ratios (n) of (oxypropylene) to (oxyethylene) blocks of 1.00 and 1.50, respectively, and a combined value (N) of 1.30, is diluted with RPMI 1640 medium to a final concentration of 2.0% at 4° C. The mixture is incubated for 30 minutes at 37° C. and then sterilely filtered through a 0.22 μm filter. An equal volume of a solution of 200 μg daunorubicin in RPMI 1640 medium is added and this mixture is incubated for 30 minutes at 37° C.
# (§7) Daunorubicin in the composition of Example 3 is evaluated for cytotoxicity in (i) human T-lymphoma (Jurkat) cells as described in Example 1 and (ii) normal human mononuclear cells.
# CRL157 cells = assay: Cytotoxicity to CRL157 cells after incubation of preparations in the dark at 37° C.; type: cell-based; details: Homo sapiens
# Experimental: as §5
# Micellar daunorubicin obtained as described in Example 3 {Prep. A} and free daunorubicin {Prep. B} are incubated in the dark at 37° C. and cytotoxicity to CRL157 cells in then determined in the manner discussed in Part B of Example 1.
# [2] = tested on: human T-lymphoma (Jurkat) cells; assay: Cytotoxicity in human T-lymphoma (Jurkat) cells, Example 4; type: cell-based
# Experimental: as §5, §6, §7
# [3] = tested on: human ovarian carcinoma cells (CRL157); assay: Cytotoxicity to human ovarian carcinoma cells (CRL157), Example 1; type: cell-based; details: Ovarian carcinoma cell
# Experimental: (§8) A. A block copolymer of poly(oxyethylene)-poly(oxypropylene) in which N=0.25 (Pluronic F-68) is diluted with RPMI 1640 medium to a final concentration of 2.0% at 4° C. The mixture is incubated for 30 minutes at 37° C. and then sterilely filtered through a 0.22 μm filter. An equal volume of a solution of 200 μg daunorubicin in RPMI 1640 medium is added and this mixture is incubated for 30 minutes at 37° C.
# as §5, with “(1988).” for “(1988). The results are as follows:”
# Dox-MCF-7 = assay: Cytotoxicity against daunorubicin-resistant, verapamil-sensitive Dox-MCF-7 expressing P-170; type: cell-based, human
# Excerpt: The daunorubicin composition of Example 3 {Prep. […] B}.
# [4] = tested on: human ovarian cancer cells (CRL157); assay: Cytotoxicity to human ovarian cancer cells (CRL157), Example 3; type: cell-based
# Experimental: as §5, §6
# B. Cytotoxicity to human ovarian cancer cells (CRL157) is measured, both for this preparation {Prep. A} and a parallel preparation of free daunorubicin {Prep. B} as described in Example 1B.
# [5] = tested on: human T-lymphoma (Jurkat) cells; assay: Cytotoxicity to human T-lymphoma (Jurkat) cells, Example 1; type: cell-based
# Experimental: as §8, §5
# Following the same procedure, cytotoxicity is determined against human T-lymphoma (Jurkat) cells: […]
compound,measurement,setting,value
"COc1cccc2c1C(=O)c1c(O)c3c(c(O)c1C2=O)C[C@@](O)(C(C)=O)C[C@@H]3O[C@H]1C[C@H](N)[C@H](O)[C@H](C)O1 [Prep. B, daunorubicin]",IC50,SKVO3 cells,0.62 µg/mL
same,IC50,SKVLB cells,5.85 µg/mL
same,inhibition at 0.0032 µg/mL,[1],1%
same,inhibition at 0.016 µg/mL,[1],18%
same,inhibition at 0.08 µg/mL,[1],23%
same,inhibition at 0.4 µg/mL,[1],58%
same,inhibition at 2 µg/mL,[1],80%
same,inhibition at 10 µg/mL,[1],100%
same,inhibition at 50 µg/mL,[1],100%
same,IC50,CRL157 cells; 2 h,0.4 µg/mL
same,IC50,CRL157 cells; 4 h,0.475 µg/mL
same,IC50,CRL157 cells; 12 h,1.12 µg/mL
same,IC50,CRL157 cells; 24 h,6.3 µg/mL
same,IC50,CRL157 cells; 48 h,10.2 µg/mL
same,IC50,CRL157 cells; 96 h,48.9 µg/mL
same,inhibition at 0.0032 µg/mL,[2],21%
same,inhibition at 0.016 µg/mL,[2],36%
same,inhibition at 0.08 µg/mL,[2],59%
same,inhibition at 0.4 µg/mL,[2],83%
same,inhibition at 2 µg/mL,[2],100%
same,inhibition at 10 µg/mL,[2],100%
same,inhibition at 50 µg/mL,[2],100%
same,inhibition at 0.016 µg/mL,[3],1%
same,inhibition at 0.08 µg/mL,[3],20%
same,inhibition at 0.4 µg/mL,[3],38%
same,inhibition at 2 µg/mL,[3],53%
same,inhibition at 10 µg/mL,[3],81%
same,inhibition at 50 µg/mL,[3],100%
same,inhibition at 0.016 µg/mL,Dox-MCF-7; Homo sapiens,2%
same,inhibition at 0.08 µg/mL,Dox-MCF-7; Homo sapiens,7%
same,inhibition at 0.4 µg/mL,Dox-MCF-7; Homo sapiens,39%
same,inhibition at 2 µg/mL,Dox-MCF-7; Homo sapiens,62%
same,inhibition at 10 µg/mL,Dox-MCF-7; Homo sapiens,86%
same,inhibition at 50 µg/mL,Dox-MCF-7; Homo sapiens,100%
same,IC50 (in words),"Dox-MCF-7; resistant line Dox-MCF-7, statement for both resistant lines",higher IC50 's (is less toxic)
same,inhibition at 0.0032 µg/mL,[4],2%
same,inhibition at 0.016 µg/mL,[4],10%
same,inhibition at 0.08 µg/mL,[4],29%
same,inhibition at 0.4 µg/mL,[4],50%
same,inhibition at 2 µg/mL,[4],81%
same,inhibition at 10 µg/mL,[4],100%
same,inhibition at 50 µg/mL,[4],100%
same,inhibition at 0.0032 µg/mL,[5],22%
same,inhibition at 0.016 µg/mL,[5],44%
same,inhibition at 0.08 µg/mL,[5],51%
same,inhibition at 0.4 µg/mL,[5],84%
same,inhibition at 2 µg/mL,[5],100%
same,inhibition at 10 µg/mL,[5],100%
same,inhibition at 50 µg/mL,[5],100%
